Test results published in PubChem BioAssay (NCI).
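Compound exposure: 48 hours, 5 concentrations, 96-well plates. The concentration for 50% growth inhibition is given as GI50. TGI denotes the concentration required for complete inhibition of growth.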

How the values were obtained:
Assay in all cases: inhibition of tumour cell growth, NCI panel, 48 h
UACC-257 melanoma = tested on: UACC-257 melanoma
MDA-MB-435 = tested on: MDA-MB-435
A549 NSCLC = tested on: A549 NSCLC
NCI-H226 lung = tested on: NCI-H226 lung
SF-539 CNS = tested on: SF-539 CNS
HCT-116 colon = tested on: HCT-116 colon
RPMI-8226 leukemia = tested on: RPMI-8226 leukemia
SF-268 CNS = tested on: SF-268 CNS
LOX IMVI melanoma = tested on: LOX IMVI melanoma
EKVX NSCLC = tested on: EKVX NSCLC

SMILES	TGI (UACC-257 melanoma) [µM]	TGI (MDA-MB-435) [µM]	TGI (A549 NSCLC) [µM]	TGI (NCI-H226 lung) [µM]	TGI (SF-539 CNS) [µM]	TGI (HCT-116 colon) [µM]	TGI (RPMI-8226 leukemia) [µM]	TGI (SF-268 CNS) [µM]	TGI (LOX IMVI melanoma) [µM]	TGI (EKVX NSCLC) [µM]	GI50 (UACC-257 melanoma) [µM]	GI50 (LOX IMVI melanoma) [µM]	GI50 (A549 NSCLC) [µM]	GI50 (NCI-H226 lung) [µM]	GI50 (SF-539 CNS) [µM]	GI50 (HCT-116 colon) [µM]	GI50 (RPMI-8226 leukemia) [µM]
CCCCCC(C)SC1(C(=O)OC)CC(OC(C)=O)C(NC(C)=O)C([C@H](OC(C)=O)[C@@H](COC(C)=O)OC(C)=O)O1 (some centres undefined)	> 100	> 100	> 100	> 100	70.1	> 100	> 100	> 100	–	–	–	–	–	–	–	–	–
COc1ccc(C(=O)Cc2ccc(Br)cc2)cc1OC	> 100	–	> 100	> 100	> 100	> 100	> 100	> 100	> 100	> 100	–	–	–	–	–	–	–
COC(=O)[C@H]1CO[C@H]2C/C(C)=C/CC/C(C)=C/CC[C@@]3(C)O[C@@H]3C[C@H]21	> 50	25.1	> 50	29.2	> 50	24.9	> 50	> 50	–	> 50	–	–	–	–	–	–	–
CCN(C(=S)N[C@H](C(=O)N[C@@H](C)C(=O)OC)C(C)C)c1ccccc1	> 100	> 100	> 100	> 100	84.3	> 100	> 100	–	> 100	> 100	–	–	–	–	–	–	–
C#CCSC(C=C=C)P(=O)(OC(C)C)OC(C)C (centres undefined)	> 100	> 100	> 100	> 100	–	62.8	> 100	> 100	> 100	> 100	–	–	–	–	–	–	–
COc1ccccc1Cc1nc(-c2ccccc2)nn(C2OC(COC(C)=O)C(OC(C)=O)C(OC(C)=O)C2OC(C)=O)c1=S (centres undefined)	> 100	–	> 100	> 95.7	33.6	> 45.9	80.6	60.4	> 100	> 86.4	–	–	–	–	–	–	–
CC1(c2ccc[n+](Cc3ccccc3)c2)OCCO1	> 100	–	> 100	> 100	> 100	> 100	> 100	–	> 100	> 100	–	–	–	–	–	–	–
COc1ccc(-c2cc(-c3cc4cc(Br)ccc4nc3Cl)c(C#N)c(N)n2)cc1	–	> 12.5	> 12.5	> 12.5	> 12.5	> 12.5	> 12.5	> 12.5	> 12.5	> 12.5	–	–	–	–	–	–	–
CC1CC/C(=C\c2ccc(Cl)cc2)C2OC(N)=C(C#N)C(c3ccc(Cl)cc3)=C12 (centres undefined)	53.4	44.2	–	27.1	28	27.4	29.2	31.2	26.6	22.7	–	–	–	–	–	–	–
COc1ccccc1NC(=O)CC(=O)N1N=C(C)C(N=Nc2ccc(C(=O)O)cc2)C1=O (centres undefined)	> 100	> 100	> 100	–	> 100	> 100	> 100	> 100	> 100	> 100	–	–	–	–	–	–	–
NCCCN(CCCN)CCN(CCN(CCCN)CCCN)CCN(CCCN)CCCN	> 100	> 100	> 100	> 100	–	> 100	> 100	–	> 100	–	–	–	–	–	–	–	–
O=C(Nc1ccccc1)N(CCCCN(Cc1ccccc1)C(=O)Nc1ccccc1)Cc1ccccc1	> 100	> 100	> 100	> 100	–	> 100	> 100	> 100	> 100	> 100	–	–	–	–	–	–	–
NNC(=O)Cn1c2ccc(Br)cc2c2nc3ccccc3nc21	> 100	> 100	> 100	> 100	> 100	–	> 100	> 100	–	> 100	–	–	–	–	–	–	–
COC(=O)c1c(OC(C)=O)ccc2c1c1c(n2C)C(=O)c2ccccc2C1=O	44.8	> 100	80.8	> 100	47	> 100	28	> 100	–	92.7	–	–	–	–	–	–	–
COc1ccc(NC(C)=O)cc1N1C(=O)/C(=C\c2cc(OC)c(OC)c(OC)c2)SC1c1ccccc1 (centres undefined)	> 100	> 100	> 100	> 100	> 100	> 100	> 100	–	> 100	> 100	–	–	–	–	–	–	–
O=C(c1cc(Cl)ccc1Cl)N1CCN(C(=O)c2cc(Cl)ccc2Cl)CC1	> 100	–	> 100	> 100	> 100	> 100	> 100	> 100	> 100	> 100	–	–	–	–	–	–	–
O=C1C(=O)c2ccccc2C(O)=C1CCCc1ccc(Oc2ccccc2)cc1	23.9	–	–	47.9	28	–	> 100	> 100	15.3	> 100	–	–	–	–	–	–	–
COC1OC2COC1(OC)C1OC(C)(C)OC21 (centres undefined)	> 100	> 100	> 100	> 100	–	> 100	> 100	> 100	–	> 100	–	–	–	–	–	–	–
COc1ccc(-c2c(C#N)c(S)n(NS(=O)(=O)c3ccc(C)cc3)c(=O)c2C#N)cc1	> 100	–	> 100	89.5	29.8	28	15.4	88	29.8	68.3	–	–	–	–	–	–	–
COc1ccc(C(=O)/C=C/c2c(Cl)c3c(c(OC)c2Cl)OCC(=O)N3)cc1	> 100	–	> 100	> 100	4.85	2.87	4.07	–	2.88	–	2.98	1.36	3.61	7.08	2.21	1.43	1.07
Oc1c([Si](c2ccccc2)(c2ccccc2)c2ccccc2)cc2ccccc2c1-c1c(O)c([Si](c2ccccc2)(c2ccccc2)c2ccccc2)cc2ccccc12	> 100	> 100	> 100	–	> 100	–	> 100	> 100	> 100	> 100	–	–	–	–	–	–	–
C(CCCCc1nnc(N2CCCCC2)o1)CCCc1nnc(N2CCCCC2)o1	> 100	> 100	> 100	> 100	> 100	> 100	–	> 100	> 100	> 100	–	–	–	–	–	–	–
